Measurements taken from US12576109B2, “Allogeneic human plasma and platelet derived products and uses thereof” (Consano Bio, Inc., priority 2024, dated 2026).

How the values were obtained:
THP-1 cells = experiment: LPS-induced inflammation in THP-1 cells (MSD V-PLEX cytokines), Example 25; type: cell-based, human; conditions: Candesartan 1 μg/mL; 500 ng LPS; 24 hours
Experimental: A composition comprising […] was prepared as described in Example 23 and sterile filtered, referred to as Composition […]. 300,000 THP-1 cells were plated per well. Control wells included media only. Cells were contacted with LPS and test articles as outlined in Tables 20 and 21. For a positive control, cells were administered 1.0 μg/mL Candesartan. Candesartan is a […] and known to reduce the production of cytokines. Specifically, candesartan is an angiotensin receptor subtype 1 inhibitor and was utilized as a positive control. The cells were incubated for 1 hour. The cells were incubated, and samples of the supernatant were collected at 4 hours and 24 hours. The remaining cells were collected and analyzed for total cell count and percent viability. The Meso Scale Discovery (MSD; Rockville, […]) V-PLEX kit (4-PLEX) with IL-1b, IL-6, IL-8, and TNF-α were used to analyze the cytokines in the media at 4 and 24 hours after LPS stimulation.

[1] = system: normal human dermal fibroblasts (NHDF) cells; experiment: Scratch assay (in vitro wound closure); type: cell-based; conditions: 3.7 ng/mL PDGF-BB, positive control
Experimental: The test articles are outlined in Table 30 below. Briefly, AHPPDP was prepared based on the methods disclosed herein.
3,000 normal human dermal fibroblasts (NHDF) cells were plated per well. […] Vehicle at 9% concentration was the negative control.
The output measures of the scratch assay were, total number of nuclei per well, sum of cell area per well, and sum of empty area per well.

Row | Molecule | IL1-beta (THP-1 cells) | IL-6 (THP-1 cells) | IL-8 (THP-1 cells) | TNF-alpha (THP-1 cells) | wound healing [1]
1 | CCOc1nc2cccc(C(=O)O)c2n1Cc1ccc(-c2ccccc2-c2nnn[nH]2)cc1 [Candesartan] | 0 pg/mL | 0 pg/mL | 1.44 pg/mL | 0 pg/mL | 
2 | PDGF-BB: PDGF-BB in cell media, positive control of the scratch assay (protein, UniProt P01127 82-190, looked up) Platelet-derived growth …: SLGSLTIAEPAMIAECKTRTEVFEISRRLIDRTNANFLVWPPCVEVQRCSGCCNNRNVQCRPTQVQLRPVQVRKIEIVRKKPIFKKATVTLEDHLACKCETVAAARPVT |  |  |  |  | Wound healing compared to vehicle condition was obtained
